# Laboratory results taken from PMC4642672, “The GH5 1,4-β-mannanase from Bifidobacterium animalis subsp. lactis Bl-04 possesses a low-affinity mannan-binding module and highlights the diversity of mannanolytic enzymes” (BMC Biochemistry, 2015).
# How the values were obtained:
# BlMan5_8 = target: T1, BlMan5_8 (Bifidobacterium animalis, UniProt B8DWU0); assay: surface plasmon resonance, steady state, enzyme immobilised by amine coupling; type: binding; details: 10 mM MES, 150 mM NaCl, 0.005% P20, pH 6.0, 25 °C, one-site fit
# T1 construct: gene BLA_0648; mature enzyme without signal peptide (residues 1-29 removed), GH5_8 + C-terminal CBM10; N-terminal His6 tag cleaved by thrombin; E. coli BL21(DE3)
# T1 sequence (B8DWU0 entry or part of it): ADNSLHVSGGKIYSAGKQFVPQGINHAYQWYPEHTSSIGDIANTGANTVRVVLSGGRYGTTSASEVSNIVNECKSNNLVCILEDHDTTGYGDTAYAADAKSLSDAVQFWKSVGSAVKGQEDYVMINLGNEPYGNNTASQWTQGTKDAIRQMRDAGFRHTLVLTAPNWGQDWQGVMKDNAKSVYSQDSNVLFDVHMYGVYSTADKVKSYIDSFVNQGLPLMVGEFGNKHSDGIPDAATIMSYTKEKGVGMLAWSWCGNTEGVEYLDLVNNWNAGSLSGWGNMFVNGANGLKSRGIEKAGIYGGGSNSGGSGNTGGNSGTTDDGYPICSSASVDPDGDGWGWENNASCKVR
# Description: surface plasmon resonance, steady state, enzyme immobilised by amine coupling on BlMan5_8
# BlMan5_8-ΔCBM10 = target: T2, BlMan5_8-ΔCBM10 (Bifidobacterium animalis, UniProt B8DWU0); assay: as above; type: binding; details: 10 mM MES, 150 mM NaCl, 0.005% P20, pH 6.0, 25 °C; one-site fit; catalytic module
# T2 construct: gene BLA_0648; catalytic GH5_8 module, C-terminal CBM10 deleted by stop codon at Ser338 in linker; signal peptide (1-29) removed; N-terminal His6 tag cleaved by thrombin; E. coli BL21(DE3)
# T2 sequence (B8DWU0 entry or part of it, stated change not applied): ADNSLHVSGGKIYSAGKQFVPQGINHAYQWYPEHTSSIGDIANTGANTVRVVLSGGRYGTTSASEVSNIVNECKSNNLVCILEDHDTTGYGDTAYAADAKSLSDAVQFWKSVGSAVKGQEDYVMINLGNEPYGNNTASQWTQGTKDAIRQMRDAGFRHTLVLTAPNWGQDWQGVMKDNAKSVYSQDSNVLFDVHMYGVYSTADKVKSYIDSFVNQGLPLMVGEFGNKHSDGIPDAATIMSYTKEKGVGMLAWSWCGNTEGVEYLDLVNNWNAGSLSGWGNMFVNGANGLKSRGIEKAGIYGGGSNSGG
# Description: surface plasmon resonance, steady state, enzyme immobilised by amine coupling on BlMan5_8-ΔCBM10
# [1] = catalytic module and CBM10 both bind
Kd (BlMan5_8; [1]),Kd (BlMan5_8-ΔCBM10),Kd (BlMan5_8; CBM10 site suggested),Compound
580 ± 50 µM,240 ± 420 µM,–,"OC[C@H]1O[C@@H](O[C@H]2[C@H](O)[C@H](O)[C@H](O[C@H]3[C@H](O)[C@H](O)[C@H](O[C@H]4[C@H](O)[C@H](O)[C@H](O[C@H]5[C@H](O)[C@H](O)[C@H](O[C@H]6[C@H](O)[C@H](O)C(O)O[C@@H]6CO)O[C@@H]5CO)O[C@@H]4CO)O[C@@H]3CO)O[C@@H]2CO)[C@@H](O)[C@@H](O)[C@@H]1O (some centres unmarked) [M6, mannohexaose]"
–,–,5100 ± 800 µM,"OC[C@H]1O[C@@H](O[C@H]2[C@H](O)[C@H](O)[C@H](O[C@H]3[C@H](O)[C@H](O)[C@H](O[C@H]4[C@H](O)[C@H](O)C(O)O[C@@H]4CO)O[C@@H]3CO)O[C@@H]2CO)[C@@H](O)[C@@H](O)[C@@H]1O (some centres unmarked) [M4, mannotetraose]"
3700 ± 300 µM,1500 ± 300 µM,–,"OC[C@H]1O[C@@H](O[C@H]2[C@H](O)[C@H](O)[C@H](O[C@H]3[C@H](O)[C@H](O)[C@H](O[C@H]4[C@H](O)[C@H](O)[C@H](O[C@H]5[C@H](O)[C@H](O)C(O)O[C@@H]5CO)O[C@@H]4CO)O[C@@H]3CO)O[C@@H]2CO)[C@@H](O)[C@@H](O)[C@@H]1O (some centres unmarked) [M5, mannopentaose]"
